We go through 6 substances from US9790496B2, “Microrna compounds and methods for modulating MIR-21 activity” (Regulus Therapeutics, Inc., priority 2011, dated 2017).

This data set has as its system miR-21. Nature of the data set: miR-21 luciferase sensor assay in Hela cells. It is filed as cell-based. How it is done: The compounds were assessed for miR-21 inhibitory activity in a luciferase assay. A microRNA luciferase sensor construct was engineered using pGL3-MCS2 (Promega). The construct was introduced into Hela cells to test the ability of anti-miR compounds to inhibit activity of miR-21. In this assay, miR-21 present in the Hela cells binds to its cognate site(s) in the luciferase sensor construct, and suppresses luciferase expression. When the appropriate anti-miR is introduced into the cells, it binds to miR-21 and relieves suppression of luciferase expression. Thus, in this assay anti-miRs that are effective inhibitors of miR-21 expression will cause an increase in luciferase expression.
Day 1: Hela cells (ATCC), stably transfected with a luciferase construct engineered to contain a sequence complementary of miR-21, were seeded in T-170 flasks (BD Falcon) at 3.5*10^6 cells/flask. Hela cells were grown in Dulbecco's Modified Eagle Medium with High Glucose (Invitrogen).
Day 2: Each flask of Hela cells was transfected with 0.5 ug of a phRL sensor plasmid (Promega) expressing Renilla to be used in normalization. Hela cells were transfected using 20 ul Lipofectamine 2000/flask (Invitrogen). After 4 hours of transfection, cells were washed with PBS and trypsinized. Hela cells were plated at 40 k/well in 24 well plates (BD Falcon) and left overnight.
Day 3: Hela cells were transfected with anti-miRs using Lipofectin (Invitrogen) at 2.5 ul Lipofectin/100 nM ASO/ml Opti-MEM I Reduced Serum Medium (Invitrogen) for 4 hours. After ASO transfection, Hela cells were refed with Dulbecco's Modified Eagle Medium with High Glucose (Invitrogen).
Day 4: Hela cells are passively lysed and luciferase activity measured using the Dual-Luciferase Reporter Assay System (Promega).
The luciferase assay was performed to test the ability of anti-miRs with the nucleoside patterns described herein to inhibit the activity of miR-21. Results were compared to a ‘mock’ treatment, in which cells received no anti-miR treatment. The experiment was repeated and results of two experimental replicates are shown in the following Table B, as the luciferase value normalized to beta-galactosidase activity.
The luciferase assay was performed as described herein to test the ability of anti-miRs in Table F to inhibit the activity of miR-21. Results were compared to a ‘mock’ treatment, in which cells received no anti-miR treatment. The experiment was repeated and results of two experimental replicates are shown in the following Table D, as fold change in luciferase value relative to the mock treatment.

[1] abbreviates: concentration of anti-miR compound 0.2 (unit not given).
Where [2] appears, read: concentration of anti-miR compound 0.6 (unit not given).
Setting [3] is: concentration of anti-miR compound 1.9 (unit not given).
[4] abbreviates: concentration of anti-miR compound 5.6 (unit not given).
The mark [5] stands for this setting: concentration of anti-miR compound 16.7 (unit not given).
[6] abbreviates: concentration of anti-miR compound 50.0 (unit not given).
The mark [7] stands for this setting: 4 nM oligonucleotide, Hela cells, mock transfection 50.
Setting [8] is: 20 nM oligonucleotide, Hela cells, mock transfection 47.
[9] abbreviates: 100 nM oligonucleotide, Hela cells, mock transfection 40.
Setting [10] is: 500 nM oligonucleotide, Hela cells, mock transfection 39.
[11] abbreviates: .16 nM oligonucleotide, Hela cells, mock transfection 45.
Setting [12] is: .8 nM oligonucleotide, Hela cells, mock transfection 33.

Strand notation (5' to 3'): a small letter for the sugar, then the base; units joined by * are phosphorothioate-linked, units joined directly phosphodiester-linked; [ ] holds rarer units or linkages, { } end groups; capitals alone tell only the bases. e = 2'-O-(2-methoxyethyl) (MOE); l = locked nucleic acid (LNA); k = constrained ethyl (cEt); [5mC] = 5-methylcytosine

Consider “AE^MeCSAT^MeCSAGT^MeCSTGATSAAG^MeCSTAE (antisense ACATCAGTCTGATAAGCTA; modified nucleosides coded in name, code key not given here) [Compound 25922, 25070 variant: each cytosine is a 5-methyl cytosine]”, for which the “inhibition of miR-21 in the luciferase assay (in words)” value (Hela cells) was “demonstrated inhibition of miR-21 in a dose-dependent manner”. Moreover, the “fold change in luciferase value relative to the mock treatment” value under setting [1] was 1.02; the “fold change in luciferase value relative to the mock treatment” value under setting [2] stood at 1.10; the “fold change in luciferase value relative to the mock treatment” value under setting [3] came to 1.34; the “fold change in luciferase value relative to the mock treatment” value under setting [4] is reported as 8.81; the “fold change in luciferase value relative to the mock treatment” value under setting [5] was 11.60; the “fold change in luciferase value relative to the mock treatment” value under setting [6] was 11.46.
Consider “AeTe^MeCeASGSTe^MeCeTeGSASTeAeASGS^MeCeTeAe [Compound 25077]”, for which the “luciferase value normalized to beta-galactosidase activity” value (from here on “luciferase value normalized”) is, setting by setting: under setting [7], 45; under setting [8], 33; under setting [9], 42; under setting [10], 40; under setting [11], 34; under setting [12], 33.
For “Ae^MeCAST^MeCAGST^MeCTGASTASAGS^MeCTAe (ACATCAGTCTGATAAGCTA; all C 5-methyl, all phosphorothioate, sugars by position not given here; further chemistry not fully specified) [Compound 25071]”, the “luciferase value normalized” value by setting is: under setting [7], 50; under setting [8], 63; under setting [9], 53; under setting [10], 42; under setting [11], 48; under setting [12], 36.
Turning to “AeTe^MeCeAeGeTe^MeCeTeGSAsTeASASGe^MeCeUSAS [Compound 25731]”, the “luciferase value normalized” value under setting [7] was determined as 32; the “luciferase value normalized” value under setting [8] turned out to be 39; the “luciferase value normalized” value under setting [9] was found to be 38; the “luciferase value normalized” value under setting [10] is recorded as 59; the “luciferase value normalized” value under setting [11] stood at 34; the “luciferase value normalized” value under setting [12] worked out at 45.
Consider “AE^MeCLAETE^MeCLAEGETE^MeCLTEGEAE^MeTLAEAEGE^MeCLTEAE (antisense eA*l[5mC]*eA*eT*l[5mC]*eA*eG*eT*l[5mC]*eT*eG*eA*lT*eA*eA*eG*l[5mC]*eT*eA) [Compound 25117, LNA variant: each non-bicyclic nucleoside is 2'-MOE, each cytosine 5-methyl cytosine]”, for which the “fold change in luciferase value relative to the mock treatment” value is reported as 1.05 under setting [1]; 1.15 under setting [2]; 1.14 under setting [3]; 3.64 under setting [4]; 7.36 under setting [5]; 2.91 under setting [6].
For the substance “AE^MeCSAETE^MeCSAEGETE^MeCSTEGEAE^MeTSAEAEGE^MeCSTEAE (antisense eA*k[5mC]*eA*eT*k[5mC]*eA*eG*eT*k[5mC]*eT*eG*eA*kT*eA*eA*eG*k[5mC]*eT*eA; further chemistry not given here) [Compound 25116, 25070 variant: each non-bicyclic nucleoside is 2'-MOE, each cytosine 5-methyl cytosine]”, the “fold change in luciferase value relative to the mock treatment” value came to 1.06 under setting [1]; 0.98 under setting [2]; 1.06 under setting [3]; 2.47 under setting [4]; 5.64 under setting [5]; 1.98 under setting [6].
